The values that follow are results of earlier work, collected in patent US20220105100A1, “SAFE BRINZOLAMIDE AND BRIMONIDINE COMPOSITIONS WITH ENHANCED BENZALKONIUM CHLORIDE CONTENT” (Somerset Therapeutics, LLC, priority 2020, published 2022).

The conditions of the data set: laboratory, experimental, and clinical studies.

Turning to benzalkonium chloride, the ophthalmological side effects entry was “causing tear film instability, loss of goblet cells, conjunctival squamous metaplasia and apoptosis, disruption of the conical epithelium barrier, and damage to deeper ocular tissues”.
